Reference: ChEMBL document CHEMBL1201862, “PubChem BioAssay data set” (2004)
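Briefly, cells in 96-well plates were exposed to five compound concentrations for 48 h, and endpoints were estimated by linear interpolation. GI50: concentration for 50% inhibition of growth.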 Activity calls are given as the source filed them. Cut-off read from the data, not from the text of the source: active = GI50 up to about 1.1 µM and inactive = higher.

How the values were obtained:
Assay in all cases: NCI-60 cell line screen, 48 h
786-0 = test system: 786-0
A498 = test system: A498
A549 = test system: A549
ACHN = test system: ACHN
CCRF-CEM = test system: CCRF-CEM
COLO 205 = test system: COLO 205
DLD-1 = test system: DLD-1
DMS-114 = test system: DMS-114
DMS-273 = test system: DMS-273
HCC 2998 = test system: HCC 2998
HCT-116 = test system: HCT-116
HCT-15 = test system: HCT-15
HL-60 = test system: HL-60
HOP-62 = test system: HOP-62
HT-29 = test system: HT-29
IGROV-1 = test system: IGROV-1
K562 = test system: K562
KM-20L2 = test system: KM-20L2
KM12 = test system: KM12
LOX IMVI = test system: LOX IMVI
LXFL 529 = test system: LXFL 529
M14 = test system: M14
M19-MEL = test system: M19-MEL
MOLT-4 = test system: MOLT-4
Malme-3M = test system: Malme-3M
NCI-H226 = test system: NCI-H226
NCI-H23 = test system: NCI-H23
NCI-H460 = test system: NCI-H460
NCI-H522 = test system: NCI-H522
OVCAR-3 = test system: OVCAR-3
OVCAR-4 = test system: OVCAR-4
OVCAR-5 = test system: OVCAR-5
OVCAR-8 = test system: OVCAR-8
RPMI-8226 = test system: RPMI-8226
RXF 393 = test system: RXF 393
SF-268 = test system: SF-268
SF-295 = test system: SF-295
SF-539 = test system: SF-539
SK-MEL-28 = test system: SK-MEL-28
SK-MEL-2 = test system: SK-MEL-2
SK-MEL-5 = test system: SK-MEL-5
SK-OV-3 = test system: SK-OV-3
SN12C = test system: SN12C
SNB-75 = test system: SNB-75
SNB-78 = test system: SNB-78
TK-10 = test system: TK-10
U-251 = test system: U-251
UACC-257 = test system: UACC-257
UACC-62 = test system: UACC-62
UO-31 = test system: UO-31
CAKI-1 = test system: CAKI-1
HOP-18 = test system: HOP-18
HOP-92 = test system: HOP-92
SNB-19 = test system: SNB-19
SR = test system: SR
SW-620 = test system: SW-620

Structure (SMILES): O=C(CSc1nnc(Cc2ccccc2)o1)Nc1ccc([N+](=O)[O-])cc1
- GI50 (786-0): > 100 µM (inactive)
- GI50 (A498): > 100 µM (inactive)
- GI50 (A549): 59.4 µM (inactive)
- GI50 (ACHN): > 100 µM (inactive)
- GI50 (CCRF-CEM): > 100 µM (inactive)
- GI50 (COLO 205): > 100 µM (inactive)
- GI50 (DLD-1): > 100 µM (inactive)
- GI50 (DMS-114): 22.4 µM (inactive)
- GI50 (DMS-273): > 100 µM (inactive)
- GI50 (HCC 2998): > 100 µM (inactive)
- GI50 (HCT-116): > 100 µM (inactive)
- GI50 (HCT-15): > 100 µM
- GI50 (HL-60): 14.1 µM (inactive)
- GI50 (HOP-62): > 100 µM (inactive)
- GI50 (HT-29): 48 µM (inactive)
- GI50 (IGROV-1): > 100 µM (inactive)
- GI50 (K562): 40.2 µM (inactive)
- GI50 (KM-20L2): > 100 µM (inactive)
- GI50 (KM12): > 100 µM (inactive)
- GI50 (LOX IMVI): 61.7 µM (inactive)
- GI50 (LXFL 529): 78.2 µM (inactive)
- GI50 (M14): > 100 µM (inactive)
- GI50 (M19-MEL): > 100 µM (inactive)
- GI50 (MOLT-4): 87.3 µM (inactive)
- GI50 (Malme-3M): > 100 µM (inactive)
- GI50 (NCI-H226): > 100 µM (inactive)
- GI50 (NCI-H23): 89.7 µM (inactive)
- GI50 (NCI-H460): > 100 µM (inactive)
- GI50 (NCI-H522): 82.2 µM (inactive)
- GI50 (OVCAR-3): > 100 µM (inactive)
- GI50 (OVCAR-4): > 100 µM (inactive)
- GI50 (OVCAR-5): > 100 µM (inactive)
- GI50 (OVCAR-8): > 100 µM (inactive)
- GI50 (RPMI-8226): > 100 µM (inactive)
- GI50 (RXF 393): > 100 µM (inactive)
- GI50 (SF-268): > 100 µM (inactive)
- GI50 (SF-295): 52 µM (inactive)
- GI50 (SF-539): > 100 µM (inactive)
- GI50 (SK-MEL-28): > 100 µM (inactive)
- GI50 (SK-MEL-2): > 100 µM (inactive)
- GI50 (SK-MEL-5): > 100 µM (inactive)
- GI50 (SK-OV-3): > 100 µM (inactive)
- GI50 (SN12C): > 100 µM (inactive)
- GI50 (SNB-75): > 100 µM (inactive)
- GI50 (SNB-78): > 100 µM (inactive)
- GI50 (TK-10): 62.2 µM (inactive)
- GI50 (U-251): > 100 µM (inactive)
- GI50 (UACC-257): > 100 µM (inactive)
- GI50 (UACC-62): > 100 µM (inactive)
- GI50 (UO-31): 74.1 µM (inactive)

Structure (SMILES): O=C(/C=N/c1ccccc1C(=O)[O-])c1cccs1.O=C(/C=N/c1ccccc1C(=O)[O-])c1cccs1.[Zn+2]
- GI50 (786-0): > 100 µM (inactive)
- GI50 (A498): > 100 µM (inactive)
- GI50 (A549): 73.8 µM (inactive)
- GI50 (ACHN): > 100 µM (inactive)
- GI50 (CAKI-1): 91 µM (inactive)
- GI50 (CCRF-CEM): 23.7 µM (inactive)
- GI50 (COLO 205): > 100 µM (inactive)
- GI50 (DLD-1): 39.9 µM (inactive)
- GI50 (DMS-273): > 100 µM (inactive)
- GI50 (HCC 2998): > 10 µM (inactive)
- GI50 (HCT-116): > 100 µM (inactive)
- GI50 (HCT-15): > 100 µM
- GI50 (HL-60): 43.3 µM (inactive)
- GI50 (HOP-18): > 100 µM (inactive)
- GI50 (HOP-62): > 100 µM (inactive)
- GI50 (HOP-92): 19.6 µM (inactive)
- GI50 (HT-29): > 100 µM (inactive)
- GI50 (IGROV-1): 31.9 µM (inactive)
- GI50 (K562): 29.2 µM (inactive)
- GI50 (KM-20L2): > 100 µM (inactive)
- GI50 (KM12): > 100 µM (inactive)
- GI50 (LOX IMVI): 27.4 µM (inactive)
- GI50 (M14): 36.4 µM (inactive)
- GI50 (MOLT-4): 34 µM (inactive)
- GI50 (Malme-3M): > 10 µM (inactive)
- GI50 (NCI-H23): 88.3 µM (inactive)
- GI50 (NCI-H460): 71.8 µM (inactive)
- GI50 (NCI-H522): 21.1 µM (inactive)
- GI50 (OVCAR-3): 15.4 µM (inactive)
- GI50 (OVCAR-5): 24.7 µM (inactive)
- GI50 (OVCAR-8): 36.1 µM (inactive)
- GI50 (SF-268): 27.4 µM (inactive)
- GI50 (SF-295): 20.4 µM (inactive)
- GI50 (SF-539): 42.5 µM (inactive)
- GI50 (SK-MEL-28): 39.5 µM (inactive)
- GI50 (SK-MEL-2): 25.8 µM (inactive)
- GI50 (SK-OV-3): 20.5 µM (inactive)
- GI50 (SN12C): > 10 µM (inactive)
- GI50 (SNB-19): 43.1 µM (inactive)
- GI50 (SNB-75): 14.8 µM (inactive)
- GI50 (SR): 46.3 µM (inactive)
- GI50 (SW-620): 67.5 µM (inactive)
- GI50 (TK-10): > 100 µM (inactive)
- GI50 (U-251): 17.5 µM (inactive)
- GI50 (UACC-257): 20.3 µM (inactive)
- GI50 (UACC-62): 20.8 µM (inactive)
- GI50 (UO-31): > 100 µM (inactive)
